# Test results as given in patent US10827753B2, “Compositions and methods for controlling nematodes” (Monsanto Technology LLC, priority 2007, dated 2020).
# Marks after values point to notes of the source that are not given here.
# Key:
# Meloidogyne incognita [1] = experiment: Summer field evaluation of pre-plant incorporated compounds on squash; format: in vivo
# Method: Test plots of 33 cm diameter holes were bored 41 cm deep into clay soil and filled with a mixture of 80% sand and 20% silt loam soil. Technical compound for each treatment was dissolved in 50 ml acetone containing 250 ul of Triton X-100 surfactant. This solution was added to 450 ml water and poured onto 95 liters of sand/soil mixture in a rotating drum mixer. While continuing to rotate the mixing drum 66 grams of chopped, galled, tomato roots was added and thoroughly distributed. The treated soil was sufficient to fill the top 15 cm of each of the 6 replicate plots, thus simulating a PPI treatment. The plots were then watered lightly and a mixture of M. incognita eggs and larvae were injected 5 cm deep at 5 points within the plot (100 k eggs/larvae in 10 ml per plot). Three-week old squash (cv. Liberator III) with 1 fully expanded true leaf was planted 4 days after soil treatment, one per plot.
# root knot nematode (RKN) = experiment: RKN greenhouse soil assay on cucumber plants; format: in vivo, Meloidogyne incognita
# Description: Cucumber seeds are planted in a sandy soil mixture in two inch square plastic pots. When the cotyledons are fully opened and just as the first leaf begins to emerge, usually 7 days after planting, chemistry for the 7 day treatment is applied. One week later the chemistry for the 0 day treatment is applied. Separate plants are used for each application. The plants are generally in the 1-2 leaf stage now. At least four hours after the chemistry application the pots are inoculated with root knot nematode (RKN) eggs. Plants are rated for galling 14 days after the egg inoculation.
# One milligram of chemistry per four pots is equal to one kilogram per hectare of chemical. A standard test uses four replications. For rates above 2 kg/ha, the desired amount of chemical is weighed into a 30 ml vial (example: 8 kg/ha rate=8 mg chemical in 30 ml vial). The chemical is dissolved in 2 ml of appropriate solvent, generally acetone. For rates below 2 kg/ha, 2 milligrams of chemistry is weighed into the vial and dissolved in 2 ml of the solvent. The appropriate amount of chemical concentrate is then pipetted into a separate 30 ml vial and solvent is added to bring the volume to 2 ml (example 0.5 kg/ha=0.5 ml of concentrate+1.5 ml solvent). Each dissolved concentrate is then brought to a total of 20 milliliters using 0.05% Triton X 100 surfactant solution.
# Pots to be treated are moist but not saturated. To each of four pots, five milliliters of the appropriate chemical solution is pipetted to the media surface making sure to avoid contact with the base of the plant. Immediately following chemical application, using a mist nozzle, the pot surface is wetted sufficiently to saturate the pot watering in the chemistry. The chemical application is done in the morning.
# Nematode eggs, either SCN or RKN, are added to distilled water to create a concentration of 1000 vermiform eggs […]. At least four hours after chemical treatment the eggs are applied to the treated pots plus non-treated check plants. A small hole about 1 cm deep is punched into the pot surface. One milliliter of the nematode egg slurry is pipetted into the hole. Immediately afterwards the hole is gently covered. Watering of the test plants is then restricted to only water as needed to prevent wilt for a period of 24 hours. After the 24 hour restricted watering, normal sub-irrigation watering is done for the duration of the test.
# root knot nematode = experiment: Pre-plant incorporated (PPI) greenhouse test of root knot nematode on cucumber plants; format: in vivo, Meloidogyne incognita; details: Meloidogyne incognita, fourteen day pre-plant incorporated, test a, read-out: percent control (galling reduction) relative to the control blank treatment; for pest or weed control at 2000 g/ha: 2 kg/ha rate; for pest or weed control at 4000 g/ha: 4 kg/ha rate; for pest or weed control at 8000 g/ha: 8 ka/ha rate
# Description: The PPI test examines the effect of pre-incorporation of compounds in soil and longer aging to simulate in furrow methods of nematicide application in the field. The PPI test exposes compounds to a higher volume of soil and drying which can result in more severe soil binding. Compounds are also aged for longer periods which can lead to more extensive biotic and abiotic degradation further limiting activity.
# The chemically treated soil (sandy soil mix) for all treatment days (e.g., 7 days, 14 days, 21 days) treatments is potted into their appropriate pots. On the same day the 7 day treatment pots are seeded. One week later eggs are applied and 14 days after egg application the test is harvested. The 14 day treatments are planted 7 days after the first planting. The 14 day planting and 7 day inoculation happen on the same day. One week later the 14 day treatments are inoculated with eggs. These are harvested 14 days after the inoculation. The 21 day treatments are planted 14 days after the first planting. The 14 day inoculation and 21 day planting are done on the same day. One week later the 21 day plants are inoculated with eggs. The 7 day treatment is harvested the same day as the 21 day inoculation. Fourteen days after inoculation the 21 day plants are harvested.
# For each compound a stock is prepared using 4 mg material in 4 ml of acetone. The soil is mixed by placing 80 ml of field soil and 320 ml of sand in a plastic bag and mixing well. The formulation for treatment is done by adding 2.13 ml (8 kg/ha rate), 1.06 ml (4 kg/ha rate) or 0.53 ml (2 kg/ha rate) to a vial and raising it with 10 ml in 0.05%×100. Soil is then treated by adding the entire 10 ml to the 400 ml of mix in the bag. The treated soil is immediately mixed well in the sealed bag to distribute the compound evenly. Approximately 95 ml is used to fill each 2-inch square pot up to the top with some soil compression and flattening. For each compound and for the control treatments 4 pots are filled. All pots are watered until moist but with no run-out through the bottom.
# The PPI test simulates 8, 4 and 2 kg/ha rates incorporated 15 cm deep in the field and is equivalent to the 2, 1 and 0.5 kg/ha drench application rates in the standard 2-inch pot cucumber greenhouse assay.
# Meloidogyne incognita [2] = experiment: M. incognita miniaturized greenhouse assay on cucumber seedlings (root galling); format: in vivo; design: key to 1 ppm gall ratings / 1 ppm gall rating: mean of 3 gall ratings: 0=0-5%, 1=6-20%, 2=21-50%, 3=51-100% root galled
# Method: The test compound is dissolved in an acetone solution and added to water. A sprouted cucumber seedling is placed into a vial with dry sand and the water-chemical solution is added immediately. Twenty four hours later Meloidogyne incognita eggs are added to the vials and 10 to 12 days later the roots are evaluated for nematode galling.
# Cucumber seeds are sprouted for 3 days in moist paper towels. Acceptable sprouts should be 3 to 4 cm long with several lateral roots just emerging. Stock solutions of chemistry are prepared in a mixture of acetone and Triton X100 (412 mg in 500 mL) to a final concentration of 5 mg/mL. The chemical stock solution is then added to 10 mL deionized water plus 0.015% Triton X100 and mixed thoroughly. This is enough to test each condition in triplicate. Ten mL dry sand is added to each vial. At this time the solubility of the chemistry is visually determined and recorded as either ppt (large precipitates) or cloudy (fine precipitates). Seedlings are planted by tilting the vial and laying the seedling in the correct orientation so that the cotyledons are just above the sand and then tilting back to cover the radicles with sand. 3.3 ml water/chemical mix is added to each vial and the vials placed in racks under fluorescent light banks. The vials are inoculated two days after planting by adding 500 vermiform M. incognita eggs to each vial in 50 uL of deionized or spring water. The vials are then kept under the fluorescent lamps at ambient room temperature and watered as needed with 1 mL deionized water, usually twice during duration of test. Harvest of the cucumber plants is done 10 to 12 days after inoculation by washing sand off the roots. A root gall rating and visual phytotoxicity rating is assigned using the following scales: Gall rating scale (Gall: % root mass galled): 0=0-5%; 1=6-20%; 2=21-50%; and 3=51-100%. The average of the triplicate gall rating is then calculated: green=0.00-0.33 (no galls); yellow=0.67-1.33 (mild galling); orange=1.67-2.33 (moderate galling); red=2.67-3.00 (severe galling). Visual phytotoxicity scale is also assigned (Vis. tox; visual reduction in root mass compared to the control): rs1=mild stunting; rs2=moderate stunting; rs3=severe stunting.
# C. elegans = experiment: Three day C. elegans well assay; format: in vivo; details: for EC50 L4 1D / EC50 L1 1D: one day of exposure; for EC50 L4 2D (F1) / EC50 L4 2D: two days of exposure; for EC50 L4 2D (F1): effects on the second generation larvae (F1); for EC50 L1 1D: L1 larvae
# Method: Various compounds were tested for nematicidal activity against C. elegans using contact assays in wells. The assays were performed as described below. The test compounds were solubilized in DMSO at 10 mg/ml to create 100× stock solutions. A dilution series was created by diluting the stock solution with DMSO. For each well assay 4 ul of the appropriate dilution is added to a well of a test plate. A 400 ul aliquot of bacterial stock (in M9 buffer with ampicillin and nystatin) are added to each well of the test plate. Worms are added and the test plate placed on a rotary shaker and held at 20° C. Worms are examined and scored at 4 hrs, 24 hrs, 48 hrs and 72 hours. L1 worms and L4 worms were used in the assay. L1 worms are prepared by plating eggs on a plate without a bacterial feeding layer. The eggs hatch and arrest at the L1 stage. This L1 stage population is then used to create a stock for the experiments. To create an L4 stage stock a small number of worms are taken from an overgrown and starved plate of worms and seeded on a plate with a bacterial feeder layer. A 25 ul aliquot of worms is added to each well in the assay.
# [3] = Acetone 1 mg/kg, standard 10% acetone in 0.05% Triton X 100 formulation
# [4] = Radex 1 mg/kg, emulsifiable concentrate, 6.25% active ingredient by weight
structure (smiles),measurement,setting,value
Clc1ccc(-c2noc(-c3ccco3)n2)cc1 [compound 5523],0-3 vigor 16 DAP,"Meloidogyne incognita [1]; 4 kg (kg/ha) PPI, squash",3.0
same,0-3 vigor 21 DAP,"Meloidogyne incognita [1]; 4 kg (kg/ha) PPI, squash",3.0
same,feeder root (3 = ave) 31 DAP,"Meloidogyne incognita [1]; 4 kg (kg/ha) PPI, squash",3.0
same,gall % 31 DAP,"Meloidogyne incognita [1]; 4 kg (kg/ha) PPI, squash",26%
same,root wgt (g) 31 DAP,"Meloidogyne incognita [1]; 4 kg (kg/ha) PPI, squash",26.3 g
same,top wgt (lbs) 31 DAP,"Meloidogyne incognita [1]; 4 kg (kg/ha) PPI, squash",1.31 lbs
same,total fruit (lbs),"Meloidogyne incognita [1]; 4 kg (kg/ha) PPI, squash",1.24 lbs
same,control of M. incognita (in words),Meloidogyne incognita [1]; PPI application at 4 kg/ha,significant control
same,percent control (galling reduction) relative to the appropriate control blank treatment,root knot nematode (RKN); [3],86%
same,percent control (galling reduction) relative to the appropriate control blank treatment,root knot nematode (RKN); [4],86%
same,pest or weed control at 2000 g/ha,root knot nematode,59%
same,pest or weed control at 4000 g/ha,root knot nematode,87%
same,pest or weed control at 8000 g/ha,root knot nematode,99%
same,1 ppm gall ratings,Meloidogyne incognita [2]; Table 1B test a,1 (1=6-20%)
same,1 ppm gall ratings,Meloidogyne incognita [2]; Table 1B test b,1.33
same,8 ppm gall ratings,"Meloidogyne incognita [2]; 8 ppm, average of triplicate gall rating, scale 0-3 (% root mass galled)",0 (0=0-5%)
Clc1cc(-c2noc(-c3cccs3)n2)ccc1Br [compound 5820],EC50 L4 1D,C. elegans; L4 larvae,no
same,EC50 L4 2D (F1),C. elegans; L4 larvae,(25 F1) parts per million
Clc1cc(-c2noc(-c3ccco3)n2)ccc1Br [compound 5821],EC50 L4 1D,C. elegans; L4 larvae,no
same,EC50 L4 2D (F1),C. elegans; L4 larvae,(0.4 F1) parts per million
Cc1cc(Cl)ccc1-c1noc(-c2cccs2)n1 [compound 5822],EC50 L4 1D,C. elegans; L4 larvae,no
Cc1cc(Br)ccc1-c1noc(-c2cccs2)n1 [compound 5824],EC50 L4 1D,C. elegans; L4 larvae,no
same,EC50 L4 2D,C. elegans; L4 larvae,no
Cc1cc(Br)ccc1-c1noc(-c2ccco2)n1 [compound 5825],percent control (galling reduction) relative to the control blank treatment,"root knot nematode (RKN); 0 day treatment, 0.05 kg/ha, test a",53^a percent
same,percent control (galling reduction) relative to the control blank treatment,"root knot nematode (RKN); 0 day treatment, 0.1 kg/ha, test a",50^a percent
same,percent control (galling reduction) relative to the control blank treatment,"root knot nematode (RKN); 0 day treatment, 0.25 kg/ha, test a",89%
same,percent control (galling reduction) relative to the control blank treatment,"root knot nematode (RKN); 0 day treatment, 0.25 kg/ha, test b",84%
same,percent control (galling reduction) relative to the control blank treatment,"root knot nematode (RKN); 0 day treatment, 1 kg/ha, test b",— 94^b percent
same,percent control (galling reduction) relative to the control blank treatment,"root knot nematode (RKN); 7 day treatment, 1 kg/ha, test b",— 97^b percent
same,percent control (galling reduction) relative to the appropriate control blank treatment,root knot nematode (RKN); [3],96%
same,percent control (galling reduction) relative to the appropriate control blank treatment,root knot nematode (RKN); [4],96%
same,pest or weed control at 2000 g/ha,root knot nematode,69%
same,pest or weed control at 4000 g/ha,root knot nematode,98%
same,pest or weed control at 8000 g/ha,root knot nematode,96%
same,1 ppm gall ratings,Meloidogyne incognita [2]; Table 1B test a,0 (0=0-5%)
same,1 ppm gall ratings,Meloidogyne incognita [2]; Table 1B test b,0.33
Clc1ccccc1-c1cnc(-c2ccco2)o1 [compound 5828],EC50 L4 1D,C. elegans; L4 larvae,no
same,EC50 L4 3D,"C. elegans; L4 larvae, three days of exposure",no
same,EC50 L4 2D,C. elegans; L4 larvae,no
Cc1cc(F)ccc1-c1noc(-c2cccs2)n1 [compound 5845],EC50 L1 1D,C. elegans,no
same,EC50 L4 1D,C. elegans; L4 larvae,no
Fc1ccc(-c2noc(-c3cccs3)n2)c(F)c1 [compound 5847],EC50 L1 1D,C. elegans,no
same,EC50 L4 1D,C. elegans; L4 larvae,no
Fc1ccc(-c2noc(-c3ccco3)n2)c(F)c1 [compound 5849],EC50 L4 1D,C. elegans; L4 larvae,no
same,EC50 L4 2D (F1),C. elegans; L4 larvae,(6.3 F1) parts per million
